The target of this test is GCN2 kinase (Homo sapiens, UniProt Q9P2K8). Nature of the test: GCN2 enzyme inhibition assay (Transcreener ADP2 fluorescence polarization). The conditions noted are these: Enzyme activity for compounds of Formula IV; Ki(app), 280 μM ATP, 25° C. It counts as biochemical. In short, it runs like this:
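Inhibition of 4 nM GCN2 was measured with compound up to 8 μM final, ATP 280 μM and (RS)7 peptide 200 μM over a 1 h, 25 °C reaction. ADP FP readout; IC50 and Ki(app) calculated from percent inhibition.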
On the technique in general: Fluorescence polarisation rises when a labelled molecule tumbles more slowly, as on binding a larger partner.
Chain of GCN2 kinase (Q9P2K8 whole entry): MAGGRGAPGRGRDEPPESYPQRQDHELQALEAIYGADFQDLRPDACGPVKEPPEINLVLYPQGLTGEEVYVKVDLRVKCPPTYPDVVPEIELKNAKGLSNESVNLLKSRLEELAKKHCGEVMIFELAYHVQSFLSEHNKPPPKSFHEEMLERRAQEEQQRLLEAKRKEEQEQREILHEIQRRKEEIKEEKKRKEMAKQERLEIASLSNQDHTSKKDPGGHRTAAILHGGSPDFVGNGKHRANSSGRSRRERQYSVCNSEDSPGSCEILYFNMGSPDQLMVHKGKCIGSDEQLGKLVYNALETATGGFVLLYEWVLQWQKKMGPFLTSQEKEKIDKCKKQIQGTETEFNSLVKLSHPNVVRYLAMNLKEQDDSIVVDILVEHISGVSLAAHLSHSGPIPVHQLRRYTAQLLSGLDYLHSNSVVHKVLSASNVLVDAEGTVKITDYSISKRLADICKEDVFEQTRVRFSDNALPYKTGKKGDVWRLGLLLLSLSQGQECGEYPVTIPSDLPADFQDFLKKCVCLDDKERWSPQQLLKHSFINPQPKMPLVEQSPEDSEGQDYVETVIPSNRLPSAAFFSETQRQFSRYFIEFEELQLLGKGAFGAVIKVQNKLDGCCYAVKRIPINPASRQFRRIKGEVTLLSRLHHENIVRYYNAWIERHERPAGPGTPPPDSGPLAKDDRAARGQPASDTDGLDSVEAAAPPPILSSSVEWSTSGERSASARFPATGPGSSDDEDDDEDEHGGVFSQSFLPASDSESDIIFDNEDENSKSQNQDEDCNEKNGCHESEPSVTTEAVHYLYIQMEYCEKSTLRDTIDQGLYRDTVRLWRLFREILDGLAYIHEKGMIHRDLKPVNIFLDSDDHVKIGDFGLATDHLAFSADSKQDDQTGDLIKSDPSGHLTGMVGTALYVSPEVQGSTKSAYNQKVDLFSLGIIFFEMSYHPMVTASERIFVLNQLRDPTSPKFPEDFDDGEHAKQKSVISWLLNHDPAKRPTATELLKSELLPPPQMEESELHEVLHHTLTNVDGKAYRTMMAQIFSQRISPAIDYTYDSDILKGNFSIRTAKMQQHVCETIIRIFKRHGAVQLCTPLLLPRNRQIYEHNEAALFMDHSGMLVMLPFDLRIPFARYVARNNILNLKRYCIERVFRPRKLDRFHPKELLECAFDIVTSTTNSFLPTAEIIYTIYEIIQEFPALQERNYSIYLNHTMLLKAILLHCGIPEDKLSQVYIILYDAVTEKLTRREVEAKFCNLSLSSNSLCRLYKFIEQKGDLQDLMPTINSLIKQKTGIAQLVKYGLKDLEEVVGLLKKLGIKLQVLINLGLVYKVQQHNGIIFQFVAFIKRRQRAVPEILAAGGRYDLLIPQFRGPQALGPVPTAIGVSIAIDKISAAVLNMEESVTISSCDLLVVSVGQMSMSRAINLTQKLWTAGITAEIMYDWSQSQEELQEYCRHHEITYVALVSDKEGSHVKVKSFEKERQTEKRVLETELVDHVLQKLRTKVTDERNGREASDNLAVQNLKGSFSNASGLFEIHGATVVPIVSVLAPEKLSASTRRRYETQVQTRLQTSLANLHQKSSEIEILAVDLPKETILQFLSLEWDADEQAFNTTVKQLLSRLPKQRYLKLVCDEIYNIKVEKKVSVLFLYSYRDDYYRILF
`N#CCCN1CCN(c2ccnc(-c3cnc4cnc(C(F)(F)F)cn34)n2)CC1` [IV-620, 3-(4-(2-(6-(Trifluoromethyl)imidazo[1,2-a]pyrazin-3-yl)pyrimidin-4-yl)piperazin-1-yl)propanenitrile] gave a Ki of 100 to 1000 nM. For the molecule `CNC(=O)C1CCN(c2ccnc(-c3cnc4cnc(C(F)(F)F)cn34)n2)C1` (stereo not drawn) [IV-625, N-Methyl-1-(2-(6-(trifluoromethyl)imidazo[1,2-a]pyrazin-3-yl)pyrimidin-4-yl)pyrrolidine-3-carboxamide], the Ki was 100 to 1000 nM. As for `FC(F)(F)c1cn2c(-c3nccc(-n4ccc(C5CCCNC5)n4)n3)cnc2cn1` (stereo not drawn) [IV-634, 3-(4-(3-(Piperidin-3-yl)-1H-pyrazol-1-yl)pyrimidin-2-yl)-6-(trifluoromethyl)imidazo[1,2-a]pyrazine], the Ki lay within 100 to 1000 nM. The molecule `Cc1nc(C2CCN(c3ccnc(-c4cnc5cnc(C(F)(F)F)cn45)n3)C2)n[nH]1` (stereo not drawn) [IV-641, 3-(4-(3-(5-Methyl-1H-1,2,4-triazol-3-yl)pyrrolidin-1-yl)pyrimidin-2-yl)-6-(trifluoromethyl)imidazo[1,2-a]pyrazine] displayed a Ki of 100 to 1000 nM. The molecule `FC(F)(F)c1cn2c(-c3nccc(N4CCC(c5nnc[nH]5)C4)n3)cnc2cn1` (stereo not drawn) [IV-642, 3-(4-(3-(4H-1,2,4-Triazol-3-yl)pyrrolidin-1-yl)pyrimidin-2-yl)-6-(trifluoromethyl)imidazo[1,2-a]pyrazine] gave a Ki of 100 to 1000 nM. As for `CC1CC(C)C(C)N(c2ccnc(-c3cnc4cnc(C(F)(F)F)cn34)n2)C1` (stereo not drawn) [IV-643, 6-(Trifluoromethyl)-3-(4-(2,3,5-trimethylpiperidin-1-yl)pyrimidin-2-yl)imidazo[1,2-a]pyrazine], the figure is 100 to 1000 nM; as for `FC(F)(F)c1cn2c(-c3nccc(N4CCC(C5CCCC5)C4)n3)cnc2cn1` (stereo not drawn) [IV-644, 3-(4-(3-Cyclopentylpyrrolidin-1-yl)pyrimidin-2-yl)-6-(trifluoromethyl)imidazo[1,2-a]pyrazine], 100 to 1000 nM. For `OC1CCN(C2CCN(c3ccnc(-c4cnc5cnc(C(F)(F)F)cn45)n3)C2)CC1` (stereo not drawn) [IV-645, 1-(1-(2-(6-(Trifluoromethyl)imidazo[1,2-a]pyrazin-3-yl)pyrimidin-4-yl)pyrrolidin-3-yl)piperidin-4-ol], the Ki was 100 to 1000 nM. As for `FC(F)(F)c1cn2c(-c3nccc(N4CCC(c5cccnc5)C4)n3)cnc2cn1` (stereo not drawn) [IV-646, 3-(4-(3-(Pyridin-3-yl)pyrrolidin-1-yl)pyrimidin-2-yl)-6-(trifluoromethyl)imidazo[1,2-a]pyrazine], the Ki is 10 to 100 nM. As for `Cn1nc(C2CCN(c3ccnc(-c4cnc5cnc(C(F)(F)F)cn45)n3)C2)cc1O` (stereo not drawn) [IV-647, 1-Methyl-3-(1-(2-(6-(trifluoromethyl)imidazo[1,2-a]pyrazin-3-yl)pyrimidin-4-yl)pyrrolidin-3-yl)-1H-pyrazol-5-ol], the figure is 100 to 1000 nM; as for `FC(F)(F)c1cn2c(-c3nccc(N4CCCC(c5cc(C(F)(F)F)[nH]n5)C4)n3)cnc2cn1` (stereo not drawn) [IV-653, 6-(Trifluoromethyl)-3-(4-(3-(5-(trifluoromethyl)-1H-pyrazol-3-yl)piperidin-1-yl)pyrimidin-2-yl)imidazo[1,2-a]pyrazine], 100 to 1000 nM. In the case of `Cn1cc(C(F)(F)F)nc1C1CCCN(c2ccnc(-c3cnc4cnc(C(F)(F)F)cn34)n2)C1` (stereo not drawn) [IV-654, 3-(4-(3-(1-Methyl-4-(trifluoromethyl)-1H-imidazol-2-yl)piperidin-1-yl)pyrimidin-2-yl)-6-(trifluoromethyl)imidazo[1,2-a]pyrazine], the Ki was in the range of 100 to 1000 nM. Consider `Cn1nccc1C1CCCN(c2ccnc(-c3cnc4cnc(C(F)(F)F)cn34)n2)C1` (stereo not drawn) [IV-655, 3-(4-(3-(1-Methyl-1H-pyrazol-5-yl)piperidin-1-yl)pyrimidin-2-yl)-6-(trifluoromethyl)imidazo[1,2-a]pyrazine], for which the Ki was in the range of 100 to 1000 nM. Molecule `FC(F)(F)c1cn2c(-c3nccc(N4CCCC(c5nnco5)C4)n3)cnc2cn1` (stereo not drawn) [IV-656, 2-(1-(2-(6-(Trifluoromethyl)imidazo[1,2-a]pyrazin-3-yl)pyrimidin-4-yl)piperidin-3-yl)-1,3,4-oxadiazole] yielded a Ki of 100 to 1000 nM. The molecule `Cc1c[nH]nc1C1CN(c2ccnc(-c3cnc4cnc(C(F)(F)F)cn34)n2)CCO1` (stereo not drawn) [IV-657, 2-(4-Methyl-1H-pyrazol-3-yl)-4-(2-(6-(trifluoromethyl)imidazo[1,2-a]pyrazin-3-yl)pyrimidin-4-yl)morpholine] gave a Ki of 100 to 1000 nM. To `O=S1(=O)CCCN1C1CCCN(c2ccnc(-c3cnc4cnc(C(F)(F)F)cn34)n2)C1` (stereo not drawn) [IV-658, 2-(1-(2-(6-(Trifluoromethyl)imidazo[1,2-a]pyrazin-3-yl)pyrimidin-4-yl)piperidin-3-yl)isothiazolidine 1,1-dioxide] belongs 100 to 1000 nM; to `FC(F)(F)c1cn2c(-c3nccc(N4CCCC(c5n[nH]c(C6CCCCC6)n5)C4)n3)cnc2cn1` (stereo not drawn) [IV-659, 3-(4-(3-(5-Cyclohexyl-1H-1,2,4-triazol-3-yl)piperidin-1-yl)pyrimidin-2-yl)-6-(trifluoromethyl)imidazo[1,2-a]pyrazine], 100 to 1000 nM; to `O=c1nc(C2CCCN(c3ccnc(-c4cnc5cnc(C(F)(F)F)cn45)n3)C2)[nH][nH]1` (stereo not drawn) [IV-660, 5-(1-(2-(6-(Trifluoromethyl)imidazo[1,2-a]pyrazin-3-yl)pyrimidin-4-yl)piperidin-3-yl)-1,2-dihydro-3H-1,2,4-triazol-3-one], 100 to 1000 nM.

The molecule `Cc1nc(C2CN(c3ccnc(-c4cnc5cnc(C(F)(F)F)cn45)n3)CCO2)n[nH]1` (stereo not drawn) [IV-661, 2-(5-Methyl-1H-1,2,4-triazol-3-yl)-4-(2-(6-(trifluoromethyl)imidazo[1,2-a]pyrazin-3-yl)pyrimidin-4-yl)morpholine] yielded a Ki of 100 to 1000 nM. Take `Cn1nc(C2CCCN(c3ccnc(-c4cnc5cnc(C(F)(F)F)cn45)n3)C2)cc1CCO` (stereo not drawn) [IV-662, 2-(1-Methyl-3-(1-(2-(6-(trifluoromethyl)imidazo[1,2-a]pyrazin-3-yl)pyrimidin-4-yl)piperidin-3-yl)-1H-pyrazol-5-yl)ethan-1-ol]: the Ki was in the range of 100 to 1000 nM. The molecule `O=C1CC(C2CCCN(c3ccnc(-c4cnc5cnc(C(F)(F)F)cn45)n3)C2)CN1` (stereo not drawn) [IV-663, 4-(1-(2-(6-(Trifluoromethyl)imidazo[1,2-a]pyrazin-3-yl)pyrimidin-4-yl)piperidin-3-yl)pyrrolidin-2-one] gave a Ki of 100 to 1000 nM.

With `FC(F)(F)c1cn2c(-c3nccc(N4CCCC(n5ccc(C(F)(F)F)n5)C4)n3)cnc2cn1` (stereo not drawn) [IV-664, 6-(Trifluoromethyl)-3-(4-(3-(3-(trifluoromethyl)-1H-pyrazol-1-yl)piperidin-1-yl)pyrimidin-2-yl)imidazo[1,2-a]pyrazine], the Ki was in the range of 100 to 1000 nM.

`FC(F)(F)c1cn2c(-c3nccc(N4CCCC(n5cccn5)C4)n3)cnc2cn1` (stereo not drawn) [IV-665, 3-(4-(3-(1H-Pyrazol-1-yl)piperidin-1-yl)pyrimidin-2-yl)-6-(trifluoromethyl)imidazo[1,2-a]pyrazine] showed a Ki of 100 to 1000 nM. In turn, `CC1CN(c2ccnc(-c3cnc4cnc(C(F)(F)F)cn34)n2)C(C)C(c2c[nH]c(C(F)(F)F)n2)N1` (stereo not drawn) [IV-666, 3-(4-(2,5-Dimethyl-3-(2-(trifluoromethyl)-1H-imidazol-4-yl)piperazin-1-yl)pyrimidin-2-yl)-6-(trifluoromethyl)imidazo[1,2-a]pyrazine] came in with a Ki of 10 to 100 nM.

The values above are taken from US10988477B2 (Merck Patent GmbH, priority 2018, dated 2021).
